Laboratory results from patent US20260274833A1 (NiKang Therapeutics, Inc., priority 2022, published 2026).

Biological target: T1, CDK2 (Homo sapiens, UniProt P24941)
T1 construct: endogenous in cells; host or cells: OVCAR3 cells
Assay: Phospho-RB measurement in OVCAR3 cells (HTRF phospho-RB cellular kit)
Assay type: cell-based
Details: inhibition of RB phosphorylation at S807/811 (HTRF, TR-FRET ratio 665/620), 24 h compound treatment, 0.3 to 10,000 nM
Procedure, shortened: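 IC50 came from a four-parameter logistic fit of the DMSO-normalized TR-FRET ratio (665/620 nm). That ratio reflects RB phosphorylation at S807/811, read with an HTRF antibody pair 4 h after adding lysate at room temperature.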

Compound	IC50 [µM]
CN(C)C(=O)c1ccc2c(c1)N(S(=O)(=O)Nc1cccc(-c3nc(C(C)(C)C)sc3-c3ccnc(NC4CCN(S(C)(=O)=O)CC4)n3)c1F)CC2 [Example 152, 1-(N-(3-(2-(tert-butyl)-5-(2-((1-(methyl-sulfonyl)piperidin-4-yl)amino)pyrimidin-4-yl)thiazol-4-yl)-2-fluorophenyl)-sulfamoyl)-N,N-dimethylindoline-6-carboxamide]	0.397
CC(C)(C)c1nc(-c2cccc(NS(=O)(=O)N3CCc4ccncc43)c2F)c(-c2ccnc(NC3CCN(S(C)(=O)=O)CC3)n2)s1 [Example 154, N-(3-(2-(tert-butyl)-5-(2-((1-(methylsulfonyl)-piperidin-4-yl)amino)-pyrimidin-4-yl)thiazol-4-yl)-2-fluoro-phenyl)-2,3-dihydro-1H-pyrrolo[2,3-c]-pyridine-1-sulfonamide]	0.685
CC(C)(C)c1nc(-c2cccc(NS(=O)(=O)N3CC4CC4C3)c2F)c(-c2ccnc(NC3CCN(S(=O)(=O)N4CCNCC4)CC3)n2)s1 (centres unmarked) [Example 155, N-(3-(2-(tert-butyl)-5-(2-((1-(piperazin-1-ylsulfonyl)piperidin-4-yl)amino)-pyrimidin-4-yl)thiazol-4-yl)-2-fluorophenyl)-3-azabicyclo[3.1.0]-hexane-3-sulfonamide]	1.06
CN(C)CCN(C)S(=O)(=O)N1CCC(Nc2nccc(-c3sc(C(C)(C)C)nc3-c3cccc(NS(=O)(=O)N4Cc5ccccc5C4)c3F)n2)CC1 [Example 156, N-(3-(2-(tert-butyl)-5-(2-((1-(N-(2-(dimethylamino)ethyl)-N-methyl-sulfamoyl)piperidin-4-yl)amino)-pyrimidin-4-yl)thiazol-4-yl)-2-fluoro-phenyl)isoindoline-2-sulfonamide]	0.0903
CN(C)CCN(C)S(=O)(=O)N1CCC(Nc2nccc(-c3sc(C(C)(C)C)nc3-c3cccc(NS(=O)(=O)N4Cc5ccncc5C4)c3F)n2)CC1 [Example 157, N-(3-(2-(tert-butyl)-5-(2-((1-(N-(2-(dimethyl-amino)ethyl)-N-methylsulfamoyl)piperidin-4-yl)amino)-pyrimidin-4-yl)thiazol-4-yl)-2-fluoro-phenyl)-1,3-dihydro-2H-pyrrolo [3,4-c]-pyridine-2-sulfonamide]	0.191
CC(C)(C)c1nc(-c2cccc(NS(=O)(=O)N3CCc4ccccc43)c2F)c(-c2ccnc(NC3CCN(S(=O)(=O)N4CCNCC4)CC3)n2)s1 [Example 158, N-(3-(2-(tert-butyl)-5-(2-((1-(piperazin-1-ylsulfonyl)piperidin-4-yl)amino)-pyrimidin-4-yl)thiazol-4-yl)-2-fluoro-phenyl)indoline-1-sulfonamide]	0.0996
CNCc1ccc2c(c1)CCN2S(=O)(=O)Nc1cccc(-c2nc(C(C)(C)C)sc2-c2ccnc(NC3CCN(S(C)(=O)=O)CC3)n2)c1F [Example 159, N-(3-(2-(tert-butyl)-5-(2-((1-(methylsulfonyl)-piperidin-4-yl)amino)-pyrimidin-4-yl)thiazol-4-yl)-2-fluoro-phenyl)-5-((methylamino)methyl)-indoline-1-sulfonamide]	4.08
CNCc1ccc2c(c1)N(S(=O)(=O)Nc1cccc(-c3nc(C(C)(C)C)sc3-c3ccnc(NC4CCN(S(C)(=O)=O)CC4)n3)c1F)CC2 [Example 160, N-(3-(2-(tert-butyl)-5-(2-((1-(methylsulfonyl)-piperidin-4-yl)amino)-pyrimidin-4-yl)thiazol-4-yl)-2-fluoro-phenyl)-6-((methylamino)methyl)-indoline-1-sulfonamide]	4.04
CN(C)C(=O)c1ccc2c(c1)CN(S(=O)(=O)Nc1cccc(-c3nc(C(C)(C)C)sc3-c3ccnc(NC4CCN(S(C)(=O)=O)CC4)n3)c1F)C2 [Example 161, 2-(N-(3-(2-(tert-butyl)-5-(2-((1-(methyl-sulfonyl)piperidin-4-yl)amino)pyrimidin-4~yl)thiazol~4-yl)-2-fluorophenyl)-sulfamoyl)-N,N-dimethyl-isoindoline-5-carboxamide]	1.8
CC(C)(C)c1nc(-c2cccc(NS(=O)(=O)N3CCc4cnccc43)c2F)c(-c2ccnc(NC3CCN(S(C)(=O)=O)CC3)n2)s1 [Example 162, N-(3-(2-(tert-butyl)-5-(2-((1-(methylsulfonyl)piperidin-4-yl)amino)-pyrimidin-4-yl)thiazol-4-yl)-2-fluoro-phenyl)-2,3-dihydro-1H-pyrrolo [3,2-c]-pyridine-1-sulfonamide]	2.12
CN(C)C(=O)c1cccc2c1CN(S(=O)(=O)Nc1cccc(-c3nc(C(C)(C)C)sc3-c3ccnc(NC4CCN(S(C)(=O)=O)CC4)n3)c1F)C2 [Example 163, 2-(N-(3-(2-(tert-butyl)-5-(2-((1-(methyl-sulfonyl)piperidin-4-yl)amino)pyrimidin-4-yl)thiazol-4-yl)-2-fluorophenyl)-sulfamoyl)-N, N-dimethyliso-indoline-4-carboxamide]	2.43
CNCCOc1cccc2c1CN(S(=O)(=O)Nc1cccc(-c3nc(C(C)(C)C)sc3-c3ccnc(NC4CCN(S(C)(=O)=O)CC4)n3)c1F)C2 [Example 164, N-(3-(2-(tert-butyl)-5-(2-((1-(methylsulfonyl)-piperidin-4-yl)amino)-pyrimidin-4-yl)thiazol-4-yl)-2-fluoro-phenyl)-4-(2-(methylamino)-ethoxy)-isoindoline-2-sulfonamide]	2.67
CC(C)(C)c1nc(-c2cccc(NS(=O)(=O)N3CCC4(CC4)C3)c2F)c(-c2ccnc(NC3CCN(S(C)(=O)=O)CC3)n2)s1 [Example 166, N-(3-(2-(tert-butyl)-5-(2-((1-(methylsulfonyl)-piperidin-4-yl)amino)-pyrimidin-4-yl)thiazol-4-yl)-2-fluoro-phenyl)-5-azaspiro[2.4] heptane-5-sulfonamide]	0.277
CN(C)Cc1cccc2c1CN(S(=O)(=O)Nc1cccc(-c3nc(C(C)(C)C)sc3-c3ccnc(NC4CCN(S(C)(=O)=O)CC4)n3)c1F)C2 [Example 167, N-(3-(2-(tert-butyl)-5-(2-((1-(methylsulfonyl)-piperidin-4-yl)amino)-pyrimidin-4-yl)thiazol-4-yl)-2-fluoro-phenyl)-4-((dimethylamino)-methyl)-isoindoline-2-sulfonamide]	0.41
CC(C)(C)c1nc(-c2cccc(NS(=O)(=O)N3CCc4ccc(C(N)=O)cc43)c2F)c(-c2ccnc(NC3CCN(S(C)(=O)=O)CC3)n2)s1 [Example 168, 1-(N-(3-(2-(tert-butyl)-5-(2-((1-(methyl-sulfonyl)piperidin-4-yl)amino)pyrimidin-4-yl)thiazol-4-yl)-2-fluorophenyl)-sulfamoyl)-indoline-6-carboxamide]	1.59
CC(C)(C)c1nc(-c2cccc(NS(=O)(=O)N3CCC4(CCCC4)C3)c2F)c(-c2ccnc(NC3CCN(S(C)(=O)=O)CC3)n2)s1 [Example 169, N-(3-(2-(tert-butyl)-5-(2-((1-(methylsulfonyl)-piperidin-4-yl)amino)-pyrimidin-4-yl)thiazol-4-yl)-2-fluoro-phenyl)-2-azaspiro [4.4]nonane-2-sulfonamide]	2.25
CC(C)(C)c1nc(-c2cccc(NS(=O)(=O)N3CCc4ccc(C#N)cc43)c2F)c(-c2ccnc(NC3CC4(C3)CS(=O)(=O)C4)n2)s1 [Example 170, N-(3-(2-(tert-butyl)-5-(2-((2,2-dioxido-2-thiaspiro[3.3]heptan-6-yl)amino)-pyrimidin-4-yl)thiazol-4-yl)-2-fluoro-phenyl)-6-cyano-indoline-1-sulfonamide]	0.062
